From US20220313620A1, “COMPOSITION FOR PREVENTING AND TREATING TAUOPATHIES” (SERVICIO ANDALUZ DE SALUD, priority 2019, published 2022)

Key:
tau protein = experiment: Hippocampal tau phosphorylation and total tau (western blot) after 10 days of oral drinking; assay type: in vivo, Wistar rats; settings: oral by drinking 100 mg/Kg for 10 days, hippocampus
Protocol: (§1) Animal experimental procedures were carried out in accordance with the European Communities directive 2010/63/EU and Spanish legislation (Real Decreto 53/2013). The protocol was approved by the Research and approved by Ethics Committee for Animal Experiments of the University of Malaga, Spain. In accordance with the ARRIVE guidelines, all efforts were made to minimize animal suffering and to reduce the number of animals used per experimental group. Chronic drinking experiments on Wistar rats were performed on 20 male rats. All adult rats, ageing 2 months (≈300 g of body weight), were provided by Charles River Laboratories (Barcelona, Spain). The animals were housed individually under a standard 12 h light-dark cycle in a room with temperature and humidity control. Water and rat chow pellets were provided ad libitum throughout the course of the present study.
Caromax®-D-Pinitol (3-O-methyl-d-chiro-inositol, DPIN, 98% purity) and Caromax®-D-Chiro-inositol (cis-1,2,3-trans-3,5,6-cyclohexanehexol, DCI) were provided by Euronutra SL (Málaga, Spain). They were dissolved in water to orally daily administration by drinking and/or gavage at dose of 100 mg/Kg of body weight (BW) in a 1 ml/kg of BW volume to Zucker and Wistar rats for 4 weeks (28 days) and 10 days, respectively (FIG. 1). During the drinking treatments, the concentration of inositols in the water were updated considering the daily increase of BW of the rats and the possible loss of water by evaporation.
Brain extract. Frozen brain samples (17 mg per sample) were homogenized in 1 mL of cold RIPA lysis buffer (50 mM Tris-HCl pH 7.4, 150 mM NaCl, 0.5% NaDOC, 1 mM EDTA, 1% Triton, 0.1% SDS, 1 mM Na3VO4, 1 mM NaF) supplemented with a protease cocktail (Hoffmann-Roche). The suspension was incubated for 2 hours at 4° C., followed by centrifugation at 12,000 rpm for 15 minutes at 4° C. The supernatant was transferred to a new clean centrifuge tube, and Bradford colorimetric method was used to determine the concentration of the total protein. The protein extracts were diluted 1:1 in loading buffer (DTT 2X) and heated for 5 minutes at 99° C. before being subjected to electrophoresis.
(§2) Western Blot Analysis. The tissue protein (10-15 μg) was subjected to electrophoresis on 4-12% Criterion XT Precast Bis-Tris gels (Bio-Rad, USA) for 30 minutes at 80V and 2 h at 150V. […] Bands were quantified by densitometric analysis using ImageJ software (Rasband, WS, ImageJ, US National Institutes of Health, Bethesda, Md., USA). […] The results were expressed as the protein/α-Adaptin ratio or phosphorylated/total protein ratio and normalized to the control group (Y axis represents ‘fold mean of the control values’).
(§3) All data are expressed as mean±SEM. […]

Glucagon = experiment: Plasma glucagon (EIA) after acute oral gavage; assay type: in vivo; settings: oral 500 mg/kg, adult male Wistar rats, FIG. 3E
Protocol: (§4) The protocol was approved by the Ethics Committee for Animal Experiments of the University of Malaga.
(§5) D-Pinitol (3-0-methyl-D-chiro-inositol) was generously provided by EURONUTRA SL (https://www.euronutra.com/, Malaga, Spain), in the form of crystalline fine powder (lot: PPN-M0201). For acute treatments, D-Pinitol was dissolved in water to be administered by gavage (orally) at different concentrations (100 mg/Kg and 500 mg/Kg), drug was administered at a volume of 1 ml/kg.
After 18 hours of fasting, D-Pinitol dissolved in water was administered acutely by gavage (100 mg/kg in a first study, and 500 mg/kg in a subsequent study). After administration, the animals were sacrificed in groups at different times (being time 0 the administration of D-Pinitol). For the first study (100 mg/kg), groups of animals were sacrificed at times: 10, 20, 30, 60, 120, 240 and 360 minutes after administration; for the second study (500 mg/kg), animals were sacrificed at times: 60, 120 and 240 minutes after administration. […]
The plasma levels of insulin and ghrelin were determined with an enzyme-linked immunosorbent assay (ELISA) method using commercial kits: EMD Millipore Corporation (Billerica, Mass., USA) Cat. #EZRMI-13K and Cat. #EZRGRT-91K, respectively. Glucagon levels in plasma was determined with a Glucagon Enzyme Immunoassay (EIA) Kit: Cat. #RAB0202 Sigma-Aldrich (Saint Louis, Mo., USA). […]

Ghrelin = experiment: Plasma ghrelin (ELISA) after acute oral gavage in fasted rats; assay type: in vivo; settings: adult male Wistar rats
Protocol: as §4, §5
After 18 hours of fasting, D-Pinitol dissolved in water was administered acutely by gavage (100 mg/kg in a first study, and 500 mg/kg in a subsequent study). After administration, the animals were sacrificed in groups at different times (being time 0 the administration of D-Pinitol). For the first study (100 mg/kg), groups of animals were sacrificed at times: 10, 20, 30, 60, 120, 240 and 360 minutes after administration; for the second study (500 mg/kg), animals were sacrificed at times: 60, 120 and 240 minutes after administration. As a control group, a group was administered only with water (by gavage).
Animals were anesthetized with sodium pentobarbital (50 mg/Kg, i.p.), blood, brain and liver samples were collected. Blood was centrifuged (2100 g for 8 min, 4° C.) and the plasma kept for further analysis. Liver and brain samples were flash-frozen in liquid N2, then stored at −80° C. until further analysis.
The plasma levels of insulin and ghrelin were determined with an enzyme-linked immunosorbent assay (ELISA) method using commercial kits: EMD Millipore Corporation (Billerica, Mass., USA) Cat. #EZRMI-13K and Cat. #EZRGRT-91K, respectively. Glucagon levels in plasma was determined with a Glucagon Enzyme Immunoassay (EIA) Kit: Cat. #RAB0202 Sigma-Aldrich (Saint Louis, Mo., USA). All serum samples were assayed in duplicate within one assay, and results were expressed in terms of the particular standard hormone.

Protein Kinase A (PKA) = experiment: Hippocampal PKA (western blot) after 10 days of oral drinking; assay type: in vivo, Wistar rats; settings: oral by drinking 100 mg/Kg for 10 days, hippocampus, FIG. 10A.2
Protocol: as §1, with “study. […]” for “study.”
as §2, with “Analysis.” for “Analysis. The tissue protein (10-15 μg) was subjected to electrophoresis on 4-12% Criterion XT Precast Bis-Tris gels (Bio-Rad, USA) for 30 minutes at 80V and 2 h at 150V.”
as §3

Structure (SMILES): COC1[C@@H](O)[C@@H](O)C(O)[C@H](O)[C@H]1O (stereo partly drawn) [DPIN, (1S,2S,4S,5R)-6-methoxycyclohexane-1,2,3,4,5-pentol]
- quantity of phospho-tau (AT8: Ser202, Thr205) compared with vehicle group (tau protein; FIG. 7A.1): dropped to more than half
- relative protein levels of total tau compared with vehicle group (tau protein; FIG. 7A.2): rise
- glucagon secretion (Glucagon): Increase
- circulating plasma Ghrelin concentration (Ghrelin; oral 100 mg/kg in sterile water, FIG. 2A): increase
- circulating plasma Ghrelin concentration (Ghrelin; oral 500 mg/kg, FIG. 3A / FIG. 4): increase
- total amount of PKA (Protein Kinase A (PKA)): significant increase
